Experimental data: patent publication US9834514B2, “Antibiotic sensitivity-restoring and photosensitive agents” (New Mexico Tech Research Foundation, priority 2015, dated 2017)
Converted amounts (≈) assume the structure as drawn. Read-outs that look alike come from different tables or passages of the source.

Key:
[1] = MIC against MRSA isolates; assay type: cell-based, S. aureus; details: Staphylococcus aureus
Experimental: The MICs of S. aureus ATCC 33591, BAA-44, BAA-1707, BAA-1717, BAA-1720, BAA-1747, BAA-1754, BAA-1761, BAA-1763, BAA-1764, and BAA-1766 were measured using a cell concentration of about 5×10^5 colony forming units (CFU)/mL. In a 96-well microtiter plate, two-fold dilutions were made of each drug (starting with 100 μM) in 100 μL of a cell suspension in trypticase soy broth (TSB). The samples were incubated overnight at 37° C. on a rotary shaking incubator set at 100 revolutions per minute (rpm) and were visually inspected for turbidity. A 20% well-volume of 3-(4,5-dimethylthiazol-2-yl)-2,5-diphenyltetrazolium bromide (MTT reagent, 5 mg/mL) was added, and the samples were incubated for about 20 minutes. The MICs were determined as the lowest concentration at which full visual inhibition was observed by the unaided eye.

VRE = test: MIC against VRE; assay type: cell-based, Enterococcus faecalis; details: Enterococcus, TABLE 23, read-out: VRE MIC
Experimental: In a 12×75 mm borosilicate glass culture tube, 1 mL of cell suspension was added. Then, compound 7 was added to the cells, and the samples were mixed using a vortex mixer. […] The samples were incubated overnight at 37° C. on a rotary shaking incubator at 100 rpm.

S. aureus (ATCC 29213) [2] = test: MIC against drug sensitive S. aureus; assay type: cell-based; details: Staphylococcus aureus, ATCC29213; ATCC 29213; read-out: S. aureus MIC
S. aureus (ATCC 29213) [3] = test: microbe, parasite or virus in culture; assay type: cell-based; details: for MIC: Staphylococcus aureus
Experimental: Each mixture was incubated at 37° C. on a rotary shaking incubator for about 16 hours. MTT was then added to assess the viability of the cells (at 10% well volume). […] The cells were then streaked onto a TSA plate and incubated overnight at 37° C. These steps were repeated to reach a total of 30 exposures.

E. coli = test: MIC against E. coli; assay type: cell-based
Excerpt: TABLE 18 details the obtained MIC values for cells treated with compound 1, light, PMB, and Polymyxin E (PME) against E. coli.

P. aeruginosa = test: MIC against P. aeruginosa; assay type: cell-based
Excerpt: Only compound 1 was able to decrease the CFU/mL when used in conjunction with white light to treat P. aeruginosa.

E. cloacae ATCC BAA-2341 = test: MIC of PMB and PME; assay type: cell-based
Excerpt: (§1) TABLE 25 details the MICs of PMB and PME against E. cloacae and K. pneumoniae.

[4] = system: K. pneumoniae ATCC BAA-2341; test: MIC of PMB and PME; assay type: cell-based; details: K. pneumoniae ATCC BAA-2341 (so in the source)
Excerpt: as §1

[5] = system: Klebsiella pneumoniae (CRE, ATCC BAA-1705); test: MIC against CRE; assay type: cell-based
Experimental: TABLE 27 details the individual MIC values of compounds 1, 7, 8, 9, 10, 11, PMB, PME, and light against CRE.
The MICs of PME and compounds 8-11 were determined against Klebsiella pneumoniae (CRE, ATCC BAA-1705). […] After the incubation with PME, the compounds were added at a concentration of 20 μM, and the samples were further incubated. At specific time points, the samples were taken and diluted ten-fold in media. Ten microliters of each dilution was then drip-streaked onto an agar plate and incubated overnight at 37° C. Colony counts were then performed and the CFU/mL were calculated.

[6] = system: A. baumannii (ATCC 15151); test: MIC against A. baumannii; assay type: cell-based
Experimental: TABLE 28 details the individual MIC values of compounds 1, 7, 8, 9, 10, 11, PMB, PME, and light against A. baumannii.
The MICs of PME and compounds 8-11 were determined against A. baumannii (ATCC 15151). […] After incubating the cells with PME, a compound (5 μM) was added, and the samples were further incubated at 37° C. At specific time points, samples were taken and diluted ten-fold in media. Ten microliters of each dilution was then drip-streaked onto an agar plate and incubated overnight at 37° C. Colony counts were then performed, and the CFU/mL were calculated.

[7] = system: Klebsiella pneumoniae (CRE, ATCC BAA-1705); test: Cell killing of CRE with compounds in presence or absence of PMB (CFU/mL); assay type: cell-based; details: PMB alone
Experimental: Klebsiella pneumoniae (CRE, ATCC BAA-1705) was grown in TSB overnight at 37° C. and diluted to about 5×10^5 CFU/mL using a McFarland Latex Turbidity standard (0.5). One mL of the cell suspension was transferred to a glass culture test tube. PMB was added to the cell suspension resulting in a final concentration of 200 μg/mL of PMB. The cell suspension was incubated at 37° C. on a rotary shaking incubator at 150 rpm for 4 hours. Compounds 1, 7, 8, 9, 10, and 11 were added to the cell suspension, resulting in a concentration of 20 μM for each of the compounds. The cell suspensions containing the compounds were incubated at 37° C. on a rotary shaking incubator at 150 rpm for 4 hours. Each sample was diluted tenfold to a 10^−5 dilution. Ten 10 microliters of each dilution from each sample was dripped onto a TSA plate and allowed to streak down the plate. The agar plates were incubated at 37° C. for 18-24 hours. Colony counts were performed and CFU/mL values were calculated.
The MICs of PMB and compounds 7-11 were determined against Klebsiella pneumoniae (CRE, ATCC BAA-1705). […] After the incubation with PMB, each of the compounds was added at a concentration of 20 μM, and the samples were incubated for an additional 18 hours. A sample was taken and diluted ten-fold in media. Ten microliters of each dilution was then drip-streaked onto an agar plate and incubated overnight at 37° C. Colony counts were then performed and the concentrations of cells (CFU/mL) were calculated.

Cc1onc(-c2ccccc2)c1C(=O)N[C@@H]1C(=O)N2[C@@H]1SC(C)(C)[C@@H]2C(=O)O [Oxacillin, reference compound]
MIC ([1]; antibiotics, MRSA isolate ATCC 33591): > 100 µg/mL
MIC ([1]; antibiotics, MRSA isolate ATCC BAA-44): 400 µg/mL (≈ 996 µM)
MIC ([1]; antibiotics, MRSA isolate ATCC BAA-1707): < 3.1 µg/mL
MIC ([1]; antibiotics, MRSA isolate ATCC BAA-1717): 200 µg/mL (≈ 498 µM)
MIC ([1]; antibiotics, MRSA isolate ATCC BAA-1720): > 100 µg/mL
MIC ([1]; antibiotics, MRSA isolate ATCC BAA-1747): 6.3 µg/mL (≈ 15.7 µM)
MIC ([1]; antibiotics, MRSA isolate ATCC BAA-1754): 50 µg/mL (≈ 125 µM)
MIC ([1]; antibiotics, MRSA isolate ATCC BAA-1761): 6.3 µg/mL (≈ 15.7 µM)
MIC ([1]; antibiotics, MRSA isolate ATCC BAA-1763): 50 µg/mL (≈ 125 µM)
MIC ([1]; antibiotics, MRSA isolate ATCC BAA-1764): 25 µg/mL (≈ 62.3 µM)
MIC ([1]; antibiotics, MRSA isolate ATCC BAA-1766): < 6.3 µg/mL
MIC ([1]; read-out: MRSA MIC, MRSA (ATCC BAA-44), TABLE 21): 400 µg/mL (≈ 996 µM)
MIC (VRE): 20 to 40 µg/mL (≈ 49.8 to 99.6 µM)
MIC (S. aureus (ATCC 29213) [2]): 0.5 µg/mL (≈ 1.25 µM)
Resistance Evolved (S. aureus (ATCC 29213) [3]): Yes
MIC (S. aureus (ATCC 29213) [3]; ATCC29213, read-out: Final MIC Apr. 16, 2015): > 8 µM
MIC (S. aureus (ATCC 29213) [3]; ATCC29213, read-out: Initial MIC Mar. 10, 2015): 0.25 µM (≈ 0.1 µg/mL)

Polymyxin E [PME, reference compound]
E. Coli MIC (E. coli): 2 µg/mL
MIC (P. aeruginosa): 2 µg/mL
MIC (E. cloacae ATCC BAA-2341): 16 µg/mL
MIC [4]: 16 µg/mL
CRE MIC [5]: 4 µg/mL
A. baumannii MIC [6]: 0.5 µg/mL

polymyxin B [PMB, reference compound]
E. Coli MIC (E. coli): 2 µg/mL
PMB @ 0.2 μg/mL [7]: 1.8 × 10^6 CFU/mL
MIC (E. cloacae ATCC BAA-2341): 4 µg/mL
CRE MIC [5]: 4 µg/mL
A. baumannii MIC [6]: 4 µg/mL
